Consider 24 compounds from patent publication US9075281B2, “Colored composition and image display structure” (FUJIFILM CORPORATION, priority 2011, dated 2015).

SMILES strings stand for the structures.

What all share (assay type): physicochemical
A short description of data set [1]: Measurement of relative permittivity. As to conditions: dye itself, extrapolated from 1, 1.5 and 2% by mass n-hexane solutions; 20° C., 40% RH, 1 kHz. As for the experimental part:
4. Measurement of Relative Permittivity
Solutions of Exemplary Compound D8-4 in n-hexane having concentrations of 1% by mass, 1.5% by mass and 2% by mass, respectively, were prepared, and individually injected into glass cells each having transparent indium-tin-oxide electrodes and a cell gap of 10 μm. The electrical capacities of the resultant cells were measured at 20° C. and 40% RH using a type 2353 LCR meter (manufactured by NF Corporation) at a measurement frequency of 1 kHz. The electrical capacity of n-hexane was also measured as a control sample.
The relative permittivities of the dyes (Exemplary Compounds) employed in the Examples were obtained in the same manner, and the results are shown in Table 7.

A short description of data set [2]: Measurement of dynamic viscosity. Particulars: 3% by mass solution in n-decane, 20° C. The method, then: Here, the dynamic viscosity is a value obtained by measurement at 20° C., using a viscometer (type 500, manufactured by Toki Sangyo Co., Ltd.).
5. Measurement of Dynamic Viscosity
A 3% by mass solution of Exemplary Compound D8-4 in n-decane was prepared, and the viscosity of the dye solution was measured at 20° C. using a viscometer (type 500, manufactured by Toki Sangyo Co., Ltd.).
The dynamic viscosities of the dyes (Exemplary Compounds) employed in Examples were obtained in the same manner, and the results are shown in Table 8.

A short description of data set [3]: Solubility of the dye in n-hexane. Particulars: in n-hexane at 25° C. and 0.1 MPa. As for the experimental part:
3. Solubility in n-Hexane
The solubility of the dye in a solvent, n-hexane, was determined as follows.
The dye to be measured was dissolved in n-hexane heated at 50° C., to prepare a saturated solution. The saturated solution obtained was then left in an environment of 25° C. and 0.1 MPa for 1 hour. The precipitated dye was filtered, and the precipitation amount was measured, from which the solubility (% by mass) of the dye in n-hexane at 25° C. and 0.1 MPa was calculated.

A short description of data set [4]: Absorption maximum wavelength, absorbance and absorption coefficient of the colored composition. Particulars: n-hexane solution, 3% by mass or maximum concentration at which the dye completely dissolves; for Absorption Coefficient (ε): calculated by Lambert-Beer law. As for the experimental part: 2. Absorption Maximum Wavelength, Absorbance and Absorption Coefficient of the Colored Composition
The absorption maximum wavelength (λmax) and the absorbance (abs) of the colored composition were measured using a visible-light spectrophotometer (trade name: UV-1800PC, manufactured by Shimadzu Corporation). The absorption coefficient (∈) was calculated based on the Lambert-Beer law.

Data set [5] in a line: Color of colored composition, visually evaluated. Particulars: n-hexane solution, visual evaluation. The text has this: 1. Color of Colored Composition
The color of the colored composition was visually evaluated.

For the compound `CCCCC(CC)CN(CC(CC)CCCC)c1ccc(/N=C2\C(C#N)=C(C(=O)OC3C(C(C)(C)C)CC(C)CC3C(C)(C)C)c3nc(C(C)(C)C)nn32)c(C(=O)N(CCCC)CCCC)c1` (stereo not shown) [D9-4], in data set [1], the “Relative Permittivity” value was 5.6.
As for `CCCCC(CC)CNC(=O)c1cc(N(CC(CC)CCCC)CC(CC)CCCC)ccc1/N=C1/C(CC)=Nn2nc(C(C)C)nc21` (stereo not shown) [D8-9], in data set [2], the “Dynamic Viscosity (mPa · s)” value was 1.3 mPa·s. Besides, the “Relative Permittivity” value in data set [1] is 7.7.
Consider `CCCCCC(CC)c1nc2n(n1)N=C(C(C)CC)/C2=N/c1ccc(N(CC(CC)CCCC)CC(CC)CCCC)cc1C` (stereo not shown) [D8-4], for which, in data set [2], the “Dynamic Viscosity (mPa · s)” value is given as 1.3 mPa·s. The “Relative Permittivity” value in data set [1] is given as 7.8. In addition, the “Solubility (% by Mass)” value in data set [3] is on record as ≥ 10 or % by mass. Also, the “Absorption Maximum Wavelength (λ max)” value in data set [4] is 562 nm. The “Color of Solution” value in data set [5] is recorded as “red”.
As for `CCCCC(CC)CN(CC(CC)CCCC)c1ccc(/N=C2\C(C#N)=C(C(=O)OC3C(C(C)(C)C)CC(C)CC3C(C)(C)C)c3nc(C(CC)CCCC)nn32)c(C(C)CC)c1` (stereo not shown) [D9-3], the “Relative Permittivity” value in data set [1] is listed as 7.6.
Take `CCCCC(CC)CNC(=O)c1cc(N(CC(CC)CCCC)CC(CC)CCCC)ccc1/N=C1\C(C#N)=C(C(=O)OC2C(C(C)(C)C)CC(C)CC2C(C)(C)C)c2nc(C(C)(C)C)nn21` (stereo not shown) [D9-6]: the “Dynamic Viscosity (mPa · s)” value in data set [2] is 1.2 mPa·s. The “Relative Permittivity” value in data set [1] is reported as 6.2. The “Solubility (% by Mass)” value in data set [3] is given as ≥ 10 or % by mass. Moreover, in data set [4], the “Absorption Maximum Wavelength (λ max)” value came out at 650 nm. Also, the “Color of Solution” value in data set [5] was “blue”.
In the case of `CCCCC(CC)CN1C(=O)C(=Cc2ccc(N(CCCC)CCCC)cc2OCC(CC(C)CC(C)CC(C)C)CC(C)CC(C)(C)C)C(C)=C(C#N)C1=O` (stereo not shown) [D3-2], the “Solubility (% by Mass)” value in data set [3] is given as ≥ 10 or % by mass. Besides, the “Absorption Maximum Wavelength (λ max)” value in data set [4] was determined as 525 nm.
As for `CCCCC(CC)CNc1ccc(NCC(CC)CCCC)c2c1C(=O)c1ccccc1C2=O` (stereo not shown) [D4-2], in data set [2], the “Dynamic Viscosity (mPa · s)” value came out at 1.3 mPa·s. Besides, the “Relative Permittivity” value in data set [1] is recorded as 6.5. The “Solubility (% by Mass)” value in data set [3] is recorded as 3.6 % by mass. For the same compound, in data set [4], the “Absorption Maximum Wavelength (λ max)” value was 640 nm. For the same compound, the “Color of Solution” value in data set [5] is recorded as “blue”.
As for `CCCCCCOc1cc(N(CC)CC)ccc1N=C1C(=O)N(CCCC)N=C1C` [D6-101, reference compound], the “Solubility (% by Mass)” value in data set [3] was 0.1 % by mass. In addition, in data set [4], the “Absorption Maximum Wavelength (λ max)” value came out at 500 nm. The “Color of Solution” value in data set [5] was “orange”.
On the same counts, the results for `CCCCCCNc1ccc(NCCCCCC)c2c1C(=O)c1ccccc1C2=O` [D4-101, reference compound] are 0.1 % by mass, 642 nm and “blue”.
In the case of `CCCCC1=NN(CCCC)C(=O)C1=Cc1ccc(N(CCCC)CCCC)cc1C` [D2-101, reference compound], the “Solubility (% by Mass)” value in data set [3] was 0.1 % by mass. Also, in data set [4], the “Absorption Maximum Wavelength (λ max)” value came to 510 nm and the “Absorption Coefficient (ε)” value is 4.25 × 10^4. Also, in data set [5], the “Color of Solution” value is on record as “orange”.
As to `CCCCCCOc1cc(N(CCCC)CCCC)ccc1C=C1C(=O)N(CCCC)C(=O)C(C#N)=C1C` [D3-101, reference compound], the “Solubility (% by Mass)” value in data set [3] is reported as “≦0.01 % by mass”.
On to `CCCCCCCCN1c2cc(C)c(/N=C3\C(C#N)=C(C(=O)OC4C(C(C)(C)C)CC(C)CC4C(C)(C)C)c4nc(C(C)CCCC)nn43)cc2C(C)CC1(C)C` (stereo not shown) [D9-2], for which, in data set [3], the “Solubility (% by Mass)” value turned out to be 2.2 % by mass. In data set [4], the “Absorption Maximum Wavelength (λ max)” value was found to be 616 nm. Moreover, the “Color of Solution” value in data set [5] is reported as “blue”.
As for `CCCCC(CC)CN(CC(CC)CCCC)c1ccc(C=C2C(=O)ON=C2C(C)CC)c(C)c1` (stereo not shown) [D1-1], the “Dynamic Viscosity (mPa · s)” value in data set [2] is on record as 1.2 mPa·s. The “Relative Permittivity” value in data set [1] was 8.8.
With `CCCCC(CC)COc1cc(N(CC(CC)CCCC)CC(CC)CCCC)ccc1N=C1C(=O)N(CC(CC)CCCC)N=C1C` (stereo not shown) [D6-1], the “Dynamic Viscosity (mPa · s)” value in data set [2] amounted to 1.2 mPa·s. The “Relative Permittivity” value in data set [1] is on record as 7.5. In addition, the “Solubility (% by Mass)” value in data set [3] is given as ≥ 10 or % by mass. Also, in data set [4], the “Absorption Maximum Wavelength (λ max)” value worked out at 505 nm.
With `CCN(CC)c1ccc(/N=C2\C(C#N)=C(C(=O)OC)c3nc(-c4ccc(C(C)(C)C)cc4)nn32)c(C)c1` [D9-101, reference compound], the “Solubility (% by Mass)” value in data set [3] was ≤ 0.05 or % by mass.
Take `CCCCC(CC)CN(CC(CC)CCCC)c1ccc(/N=C2\C(C#N)=C(C(=O)OC3C(C(C)(C)C)CC(C)CC3C(C)(C)C)c3nc(C(C)(C)C)nn32)cc1` (stereo not shown) [D9-5]: the “Dynamic Viscosity (mPa · s)” value in data set [2] was found to be 1.2 mPa·s. Moreover, the “Relative Permittivity” value in data set [1] is given as 6.5. Besides, in data set [3], the “Solubility (% by Mass)” value was ≥ 10 or % by mass. Also, in data set [4], the “Absorption Maximum Wavelength (λ max)” value is listed as 600 nm. Moreover, the “Color of Solution” value in data set [5] was “blue”.
For `CCCCCCN(CCCCCC)c1ccc(C=C2C(=O)N(CC(CC)CCCC)N=C2C)c(C)c1` (stereo not shown) [D2-5], the “Dynamic Viscosity (mPa · s)” value in data set [2] is reported as 1.2 mPa·s. In addition, in data set [1], the “Relative Permittivity” value is 8.0. The “Solubility (% by Mass)” value in data set [3] amounted to 3.0 % by mass. Besides, in data set [4], the “Absorption Maximum Wavelength (λ max)” value amounted to 510 nm and the “Absorption Coefficient (ε)” value is reported as 4.30 × 10^4. Further, the “Color of Solution” value in data set [5] was “orange”.
As for `CCCCC(CC)CC1=NN(CC(CC)CCCC)C(=O)C1=Cc1ccc(N(CC)CC)cc1OCC(CC(C)CC(C)CC(C)C)CC(C)CC(C)(C)C` (stereo not shown) [D2-2], the “Solubility (% by Mass)” value in data set [3] was 9.8 % by mass. Further, in data set [4], the “Absorption Maximum Wavelength (λ max)” value came out at 505 nm and the “Absorption Coefficient (ε)” value is 4.60 × 10^4.
With `CCCCC(CC)CC1=NN(CC(CC)CCCC)C(=O)C1=Nc1ccc(N(CC)CC)cc1OCC(C)(CC(C)CC(C)C)CC(C)CC(C)(C)C` (stereo not shown) [D6-2], the “Solubility (% by Mass)” value in data set [3] is recorded as ≥ 10 or % by mass. For the same compound, the “Absorption Maximum Wavelength (λ max)” value in data set [4] is listed as 500 nm.
Regarding `CCCCC(CC)CN(CC(CC)CCCC)c1ccc(C=C2C(=O)N(C(C)CC)C(=O)C(C#N)=C2C(C)CC)c(C)c1` (stereo not shown) [D3-1], the “Dynamic Viscosity (mPa · s)” value in data set [2] is 1.2 mPa·s. Besides, the “Relative Permittivity” value in data set [1] is listed as 9.5. Also, the “Solubility (% by Mass)” value in data set [3] was 6.2 % by mass. In addition, in data set [4], the “Absorption Maximum Wavelength (λ max)” value came to 528 nm.
In the case of `CCCCC(CC)CNC(=O)C1=CC(=Nc2ccc(N(CC(CC)CCCC)CC(CC)CCCC)cc2C)c2ccccc2C1=O` (stereo not shown) [D10-1], the “Dynamic Viscosity (mPa · s)” value in data set [2] is given as 1.3 mPa·s. The “Relative Permittivity” value in data set [1] is on record as 4.2.
Regarding `CCCCCCCCN1c2cc(C)c(/N=C3/C(C)=Nn4nc(C(C)(C)C)nc43)cc2C(C)CC1(C)C` (stereo not shown) [D8-101, reference compound], in data set [3], the “Solubility (% by Mass)” value turned out to be 0.8 % by mass. Also, in data set [4], the “Absorption Maximum Wavelength (λ max)” value was 541 nm. For the same compound, in data set [5], the “Color of Solution” value is given as “red”.
`CCCCCCCCN1c2cc(C)c(/N=C3/C(C)=Nn4nc(C(C)CNC(=O)C(CCCCCC)Oc5ccc(C(C)(C)CC)cc5C(C)(C)CC)nc43)cc2C(C)CC1(C)C` (stereo not shown) [D8-2]: the “Solubility (% by Mass)” value in data set [3] is ≥ 10 or % by mass. For the same compound, the “Absorption Maximum Wavelength (λ max)” value in data set [4] amounted to 542 nm. Also, in data set [5], the “Color of Solution” value is recorded as “red”.
In the case of `CCCCC(CC)CN(CC(CC)CCCC)c1ccc(C=C2C(=O)N(C(C)CC)N=C2C(C)CC)c(C)c1` (stereo not shown) [D2-1], the “Dynamic Viscosity (mPa · s)” value in data set [2] came out at 1.3 mPa·s. For the same compound, the “Relative Permittivity” value in data set [1] is 8.5. Moreover, in data set [3], the “Solubility (% by Mass)” value is 8.5 % by mass. In addition, in data set [4], the “Absorption Maximum Wavelength (λ max)” value was determined as 508 nm and the “Absorption Coefficient (ε)” value is on record as 4.40 × 10^4. The “Color of Solution” value in data set [5] was “orange”.
